The subject of data set [1] is Leishmania donovani. As to the kind of experiment: Antileishmanial activity against Leishmania donovani amastigotes infected in BALB/C mouse assessed as reduction in parasite burden in liver tissue at 6.25 mg/kg, po administered once per day for 5 days relative to control. The data set is classed as functional. Conditions: 120 h, time 5 day.
The test system of data set [2] is Leishmania donovani. As to the kind of experiment: Antileishmanial activity against Leishmania donovani amastigotes infected in BALB/C mouse assessed as reduction in parasite burden in liver tissue at 12.5 mg/kg, po administered once per day for 5 days relative to control. In kind it is functional. To be noted: 120 h, time 5 day.
For data set [3], the system named is Leishmania infantum. Put plainly: Antileishmanial activity against Leishmania infantum amastigotes infected in golden hamster assessed as reduction in parasite load in liver tissue at 50 mg/kg, po administered once daily for 5 days relative to control. The data set is classed as functional. Conditions: 120 h, time 5 day.
Data set [4] deals with Leishmania infantum. As to the kind of experiment: Antileishmanial activity against Leishmania infantum amastigotes infected in golden hamster assessed as reduction in parasite load in spleen tissue at 50 mg/kg, po administered once daily for 5 days relative to control. The data set is classed as functional. To be noted: 120 h, time 5 day.
Data set [5] has as its system Leishmania infantum. As to the kind of experiment: Antileishmanial activity against Leishmania infantum amastigotes infected in golden hamster assessed as reduction in parasite load in bone marrow tissue at 50 mg/kg, po administered once daily for 5 days relative to control. The data set is classed as functional. To be noted: 120 h, time 5 day.
Data set [6] can be described thus: Stability of compound in human liver microsomes assessed as percentage of parent compound remaining at 1 uM measured after 1 hr. (Liver microsomes are vesicles of endoplasmic reticulum, rich in cytochrome P450 enzymes.)
Data set [7] deals with Leishmania donovani. As to the kind of experiment: Antileishmanial activity against Leishmania donovani amastigotes infected in BALB/C mouse assessed as reduction in parasite burden in liver tissue at 50 mg/kg, po administered once per day for 5 days relative to control. To be noted: 120 h, time 5 day. In kind it is functional.
The subject of another data set is Trypanosoma cruzi. Put plainly: Antitrypanosomal activity against Trypanosoma cruzi Tulahuen CL2 infected in human MRC-5 cells assessed as parasite growth. Conditions: Tulahuen CL2, MRC5. In kind it is functional, organism-based.
The nature of data set [8]: Stability of compound in CD-1 mouse liver microsomes assessed as percentage of parent compound remaining at 1 uM measured after 1 hr.
Data set [9] can be described thus: Selectivity index, ratio IC50 for cytotoxicity against human MRC5 cells to IC50 for antileishmanial activity against Leishmania infantum MHOM/MA(BE)/67 amastigotes infected in macrophages.
The next data set deals with MRC5. Put plainly: Cytotoxicity against human MRC5 cells assessed as cell viability after 72 hrs by fluorimetric analysis. The data set is classed as ADME, cell-based. Conditions: MRC5, 72 h.
The nature of data set [10]: Kinetic solubility of compound in water at pH7 by HPLC analysis. Conditions: pH 7.
Data set [11] has as its system Leishmania infantum. Put plainly: Antileishmanial activity against Leishmania infantum MHOM/MA(BE)/67 amastigotes infected in macrophages assessed as reduction in parasite burden by giemsa staining based microscopic analysis. The data set is classed as functional, organism-based.
Data set [12] is described as follows: Stability of compound in hamster liver microsomes assessed as percentage of parent compound remaining at 1 uM measured after 1 hr. To be noted: chinese hamster.
The nature of data set [13]: Stability of compound in CD-1 mouse liver microsomes assessed as percentage of parent compound remaining at 0.5 uM measured after 30 mins. In kind it is ADME, Microsome. Conditions: read-out: Stability.
Data set [14] can be described thus: Stability of compound in human liver microsomes assessed as percentage of parent compound remaining at 0.5 uM measured after 30 mins. In kind it is ADME, Microsome. Conditions: read-out: Stability.
Data set [15] in a line: AUClast in mouse at 25 mg/kg, po measured upto 24 hrs LC-MS/MS analysis. To be noted: in vivo.
The subject of data set [16] is Leishmania donovani. Put plainly: Antileishmanial activity against Leishmania donovani amastigotes infected in mouse J774A.1 cells incubated for 72 hrs by luciferase assay. In kind it is functional, organism-based. To be noted: J774.A1, 72 h.
Data set [17] can be described thus: Clearance in mouse at 1 mg/kg, iv measured upto 24 hrs LC-MS/MS analysis. Conditions: in vivo.
A short description of data set [18]: in vivo. Conditions: mouse, po, 25 mg/kg.
Data set [19] can be described thus: AUClast in mouse at 1 mg/kg, iv measured upto 24 hrs LC-MS/MS analysis. Conditions: in vivo.
Data set [20] can be described thus: in vivo. To be noted: mouse, po, 25 mg/kg. This is another data set of the same source.
The nature of data set [21]: Volume of distribution at steady state in mouse at 1 mg/kg, iv measured upto 24 hrs LC-MS/MS analysis. Conditions: in vivo.
Data set [22] can be described thus: Initial plasma concentration in mouse at 1 mg/kg, iv measured upto 24 hrs LC-MS/MS analysis.
A short description of data set [23]: Half life in mouse at 1 mg/kg, iv measured upto 24 hrs LC-MS/MS analysis. To be noted: in vivo.
The nature of data set [24]: in vivo. Conditions: mouse, po, 25 mg/kg. This is another data set of the same source.
A further data set deals with hERG (KCNH2) (Homo sapiens, UniProt Q12809). Put plainly: Inhibition of human ERG expressed in HEK293 cells at 10 uM relative to control. To be noted: HEK293 cells expressing human ERG. The data set is classed as cell-based.
hERG (KCNH2), sequence (Q12809 whole entry): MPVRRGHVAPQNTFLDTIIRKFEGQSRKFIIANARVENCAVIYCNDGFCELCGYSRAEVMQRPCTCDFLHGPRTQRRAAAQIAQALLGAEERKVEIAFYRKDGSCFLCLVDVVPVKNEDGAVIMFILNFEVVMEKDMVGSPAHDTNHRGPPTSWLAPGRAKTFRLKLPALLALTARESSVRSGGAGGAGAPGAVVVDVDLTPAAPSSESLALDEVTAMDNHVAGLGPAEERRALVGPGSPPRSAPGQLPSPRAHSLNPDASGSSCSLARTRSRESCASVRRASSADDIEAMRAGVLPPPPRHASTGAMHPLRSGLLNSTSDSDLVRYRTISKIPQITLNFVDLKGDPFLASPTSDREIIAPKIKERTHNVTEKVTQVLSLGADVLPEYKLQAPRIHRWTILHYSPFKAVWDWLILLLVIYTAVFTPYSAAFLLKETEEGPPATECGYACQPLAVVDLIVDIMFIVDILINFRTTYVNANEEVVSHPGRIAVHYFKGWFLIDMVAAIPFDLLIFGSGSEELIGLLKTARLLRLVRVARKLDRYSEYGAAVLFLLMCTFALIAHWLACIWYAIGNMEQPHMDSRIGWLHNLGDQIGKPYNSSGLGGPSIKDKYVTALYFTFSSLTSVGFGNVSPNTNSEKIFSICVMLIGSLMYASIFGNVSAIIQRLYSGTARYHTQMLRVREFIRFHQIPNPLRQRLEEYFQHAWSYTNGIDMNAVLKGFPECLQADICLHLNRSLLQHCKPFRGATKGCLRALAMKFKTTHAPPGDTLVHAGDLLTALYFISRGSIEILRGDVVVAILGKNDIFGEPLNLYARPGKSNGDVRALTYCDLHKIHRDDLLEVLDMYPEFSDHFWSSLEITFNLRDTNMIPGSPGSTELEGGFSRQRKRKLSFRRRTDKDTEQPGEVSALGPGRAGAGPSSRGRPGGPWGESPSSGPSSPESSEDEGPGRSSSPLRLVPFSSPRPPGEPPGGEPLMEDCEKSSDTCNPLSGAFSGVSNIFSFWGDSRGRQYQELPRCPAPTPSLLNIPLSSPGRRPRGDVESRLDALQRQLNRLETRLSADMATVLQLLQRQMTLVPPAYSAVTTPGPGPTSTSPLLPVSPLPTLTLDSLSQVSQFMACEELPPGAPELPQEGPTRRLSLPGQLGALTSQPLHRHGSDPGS
The nature of data set [25]: Stability of compound in hamster liver microsomes assessed as percentage of parent compound remaining at 0.5 uM measured after 30 mins. In kind it is ADME, Cricetulus griseus, Microsome. Conditions: chinese hamster, read-out: Stability.
Data set [26] relates to Leishmania infantum. Put plainly: animal or person. To be noted: in Mesocricetus auratus, po, 120 h, read-out: INH.
Description: Antileishmanial activity against Leishmania infantum amastigotes infected in golden hamster assessed as reduction in parasite load in spleen tissue at 12.5 mg/kg, po administered once daily for 5 days relative to control
Data set [27] relates to Leishmania infantum. As to the kind of experiment: animal or person. Conditions: in Mesocricetus auratus, po, 120 h, read-out: INH. This is another data set of the same source.
Description: Antileishmanial activity against Leishmania infantum amastigotes infected in golden hamster assessed as reduction in parasite load in liver tissue at 12.5 mg/kg, po administered once daily for 5 days relative to control
Data set [28] deals with Leishmania infantum. Put plainly: Antileishmanial activity against Leishmania infantum amastigotes infected in golden hamster assessed as reduction in parasite load in bone marrow tissue at 25 mg/kg, po administered once daily for 5 days relative to control. To be noted: in Mesocricetus auratus, 120 h, read-out: INH.
In data set [29] the test system is Leishmania donovani. As to the kind of experiment: Antileishmanial activity against Leishmania donovani amastigotes infected in BALB/C mouse assessed as reduction in parasite burden in liver tissue at 25 mg/kg, po administered once per day for 5 days relative to control. Conditions: 120 h, read-out: INH.
Data set [30] deals with Leishmania donovani. Put plainly: Antileishmanial activity against Leishmania donovani amastigotes infected in BALB/C mouse assessed as reduction in parasite burden in liver tissue at 3.13 mg/kg, po administered once per day for 5 days relative to control. In kind it is functional. Conditions: 120 h, time 5 day.
Data set [31] has as its system Leishmania infantum. As to the kind of experiment: Antileishmanial activity against Leishmania infantum amastigotes infected in golden hamster assessed as reduction in parasite load in liver tissue at 25 mg/kg, po administered once daily for 5 days relative to control. Conditions: in Mesocricetus auratus, 120 h, read-out: INH.
In data set [32] the test system is Leishmania infantum. Put plainly: animal or person. To be noted: in Mesocricetus auratus, po, 120 h, read-out: INH. This is another data set of the same source.
Description: Antileishmanial activity against Leishmania infantum amastigotes infected in golden hamster assessed as reduction in parasite load in bone marrow tissue at 12.5 mg/kg, po administered once daily for 5 days relative to control

SMILES strings stand for the structures. Converted amounts (≈) assume the structure as drawn. Some results are limits rather than exact numbers.

With `C[C@]1(COc2ccc(OC(F)(F)F)cc2)Cn2cc([N+](=O)[O-])nc2O1`, the inhibition in vivo at 6.25 mg/kg in the data set on Leishmania donovani [1] is over 99%. Moreover, the inhibition in vivo at 12.5 mg/kg with Leishmania donovani [2] is over 99%.

On to `CC1(COc2ccc(OC(F)(F)F)cc2)CCn2cc([N+](=O)[O-])nc2O1` (stereo not drawn), for which the inhibition in vivo at 50 mg/kg was 100% with Leishmania infantum [3], 99.7% in the data set on Leishmania infantum [4] and 99.5% in the data set with Leishmania infantum [5]. Moreover, the inhibition in vivo at 12.5 mg/kg with Leishmania donovani [2] is over 99%.

For the compound `CC1(COc2cnc(C(F)(F)F)cn2)CCn2cc([N+](=O)[O-])nc2O1` (stereo not drawn), the remaining at 1 h, 1 µM in [6] came to 91%; in data set [8] it was 90%; in data set [12] it was 36%. Moreover, the inhibition in vivo at 50 mg/kg with Leishmania donovani [7] was determined as 17%. The IC50 in the data set with Trypanosoma cruzi was 940 nM; in the data set on MRC5, over 64000 nM; with Leishmania infantum [11] it was 2200 nM. For the same compound, in data set [9], the selectivity ratio is over 29. This compound registered a kinetic solubility in [10] of 17 µg/mL (≈ 47.3 µM).

As to `O=[N+]([O-])c1cn2c(n1)OC(COc1ncc(Cl)cn1)CC2` (stereo not drawn), the remaining at 0.5 h, 0.5 µM in data set [13] is 100%; in [14], 99%; in data set [25] it was 90%. The AUC(0-t) at 24 h in data set [15] worked out at 3830 ng·h/mL; in data set [19], 2070 ng·h/mL. In addition, the IC50 was 120 nM with Leishmania donovani [16], 39000 nM with Trypanosoma cruzi, over 64000 nM in the data set on MRC5 and over 64000 nM in the data set on Leishmania infantum [11]. Besides, the clearance at 24 h in data set [17] is 7.3 mL/min/kg. Also, the highest level in the data set “in vivo [18]” (Cmax at 24 h) was 760 ng/mL. Also, the time of peak concentration (Tmax) at 24 h in “in vivo [20]” amounted to 2 h. The Vd at 24 h in [21] was determined as 0.37 L/kg. In data set [22], this compound came in with a C0 at 24 h of 1900 ng/mL. This compound also showed a kinetic solubility in data set [10] of 6.6 µg/mL (≈ 21.2 µM). For the same compound, the AUC at 24 h in [23] is 580 ng·h/mL. For the same compound, in the data set “in vivo [24]”, the bioavailability at 24 h is 15%. At hERG (KCNH2), the inhibition at 10 µM stood at 12%.

For the compound `C[C@]1(COc2ccc(OC(F)(F)F)cc2)CCn2cc([N+](=O)[O-])nc2O1`, the figures for the inhibition in vivo at 12.5 mg/kg with Leishmania infantum [26], in the data set on Leishmania infantum [27] and in the data set with Leishmania infantum [32] were 59.5%, 67.8% and 42.5%, respectively. Also, the half-inhibitory concentration (IC50) in the data set on Leishmania donovani [16] came out at 60 nM. For the same compound, the inhibition in vivo at 25 mg/kg with Leishmania infantum [28] is 81.5%; with Leishmania donovani [29], over 99%; with Leishmania infantum [31] it was 93.6%. In addition, the inhibition in vivo at 50 mg/kg in the data set with Leishmania infantum [3] is 99.6%; in the data set on Leishmania infantum [4] it was 98%; in the data set on Leishmania infantum [5], 96.7%. For the same compound, in the data set with Leishmania donovani [30], the inhibition in vivo at 3.13 mg/kg was 51%.

On to `CC1(COc2ncc(C(F)(F)F)cc2Cl)CCn2cc([N+](=O)[O-])nc2O1` (stereo not drawn), for which the remaining at 1 h, 1 µM was 23% in [6], 14% in data set [8] and 0% in data set [12]. Also, in the data set with Leishmania donovani [7], the inhibition in vivo at 50 mg/kg was determined as 0%. Moreover, the IC50 with Trypanosoma cruzi was 290 nM; in the data set on MRC5, over 64000 nM; in the data set with Leishmania infantum [11] it was 260 nM. Moreover, in data set [9], the selectivity ratio was over 246. The solubility (kinetic) in data set [10] worked out at 11 µg/mL (≈ 28 µM).

Broadly, the IC50 is the concentration that gives 50% inhibition. Usually kinetic solubility stands for the concentration staying in solution when a stock, usually in DMSO, is diluted into the medium. As usually defined, the AUC(0-t) is exposure summed from dosing to a finite time, without extrapolation to infinity. A low value points to less exposure. The term clearance denotes a measure of how efficiently the substance is removed, as volume per time. A low value points to inefficient removal. For orientation: Cmax means the peak of the concentration-time curve. One may read the Tmax as the time at which the peak concentration occurs. As usually defined, the Vd is the apparent volume that relates the amount in the body to the concentration in plasma or blood. The low end stands for little distribution into tissue, the high end for wide distribution into tissue. For orientation: AUC means concentration integrated over time. Low readings indicate low exposure, high ones high exposure. For orientation: bioavailability means the share of a dose that reaches the circulation, judged against a reference dose that is usually intravenous. Higher therefore signals good availability. What is called inhibition is the share of the control response that was lost under treatment. Higher therefore signals strong suppression.
